Assay results reported in EP2535049A1 (Proyecto de Biomedicina Cima, S.L., priority 2011, dated 2012).
Entries after “also recorded” stand apart in the source; their conditions may differ.

Legend:
[1] = Kulkarni and Patil 2004; Forgue et al., 2006; cited from earlier work
[2] = system: pGSK3β-Ser9; experiment: Western blot of pGSK3β-Ser9 in hippocampus of J20 mice; type: in vivo; details: J20 mice treated for 10 weeks, vs saline
Experimental: (§1) Results were compared with those obtained from age-matched negative littermates (controls). To test the effect of the PDE5 inhibitors in cognition capacity related to aging, a second treatment was carried out using 10-12 month-old non-transgenic (wild type) mice on an inbred C57/B6xSJL genetic background.
(§2) Twenty four hours after the fear conditioning test, animals (n=5, per group) were sacrificed and the brains removed for biochemical studies. The cortex and hippocampus were dissected, homogenized, and processed as described below for subsequent western blot analysis. […]
(§3) Total tissue homogenates were obtained by homogenizing the hippocampus in a cold lysis buffer with protease inhibitors (0.2 M NaCl, 0.1 M HEPES, 10% glycerol, 200 mM NaF, 2 mM Na4P2O7, 5 mM EDTA, 1 mM EGTA, 2 mM DTT, 0.5 mM PMSF, 1 mM Na3VO4, 1 mM benzamidine, 10 µg/ml leupeptin, 400 U/ml aprotinin), centrifuged at 14,000 x g 4 °C for 20 minutes and the supernatant was aliquoted and stored at -80 °C. Total protein concentrations were determined using the BioRad Bradford protein assay (BioRad Laboratories).
(§4) Protein samples were mixed with an equal volume of 2 x Laemmli sample buffer, resolved onto SDS-polyacrylamide gels and transferred to nitrocellulose membrane. […] Quantity OneTM software v.4.6.3 (Bio-Rad) was used for quantification.

[3] = system: PSD95; experiment: Western blot of PSD95 in hippocampus of J20 mice; type: in vivo; details: J20 mice treated for 10 weeks
Experimental: as §1, §2, §3, §4

[4] = system: pAkt; experiment: Western blot of pAkt in hippocampus of J20 mice; type: in vivo; details: J20 mice treated for 10 weeks, vs saline
Experimental: as §1, §2, §3, §4

[5] = system: aged wild type animals (C57/b6xSJL); experiment: Fear conditioning test in aged wild type animals; type: in vivo, mice; details: 5-weeks treatment, 15 mg/Kg orally, aged (12-14-month-old) wild type animals, 24h and 7 days after training, vs saline
Experimental: Results were compared with those obtained from age-matched negative littermates (controls). […] After running the MWM, all the animals were trained in the fear conditioning test. The conditioning procedure was carried out in a StartFear system (Panlab S.L.) that allows recording and analysis of the signal generated by the animal movement through a high sensitivity Weight Transducer system. The analogical signal is transmitted to the FREEZING and […] software modules through the load cell unit for recording purposes and posterior analysis in terms of activity/immobility. The conditioning box is housed inside a soundproof chamber, which minimized external stimulation during the conditioning and retention tests. The box was provided with a house light that supplied dim illumination and with a floor grid through which foot shocks could be administered. On training day, the mice were placed in the conditioning chamber for 2 minutes before the onset of a tone at 2800 Hz, 85 dB (conditioned stimulus, CS), which lasted for 30 seconds. The last 2 seconds of the CS was paired with a 0.3 mA foot shock (unconditioned stimulus, US). Thirty seconds after the paired CS-US, mice were returned to their cage. […] Freezing behavior was defined as the lack of movement except for breathing for at least 2 seconds, and was analyzed to give the percentage time freezing during exposure to the chamber. […]

[6] = system: aged wild type animals (C57/b6xSJL); experiment: Morris water maze in aged wild type animals; type: in vivo, mice; details: 5-weeks treatment, 15 mg/Kg orally; aged (12-14-month-old) wild type animals; vs saline
Experimental: Results were compared with those obtained from age-matched negative littermates (controls). […] The MWM test was used to evaluate spatial memory as previously described (Hsiao et al., 1996; Reed et al., 2010; Ricobaraza et al., 2009). After treatments, groups of animals underwent spatial reference learning and memory testing in the MWM. The water maze was a circular pool (diameter 1.2 m) filled with water maintained at 20 °C and made opaque by the addition of non-toxic white paint. Mice were trained for three consecutive days (8 trials/day) swimming to a raised platform (visible-platform). No distal visible cues were present during this phase. The same platform location was used for all visible-platform sessions and was changed for the invisible-platform training (submerged 1 cm beneath the surface) conducted over 8 consecutive days (4 trials/day) with all visible distal cues present in this phase. […] In the probe trials the platform was removed from the pool, and the percentage of time spent in the quadrant where the platform was previously set was recorded. All trials were monitored by a camera above the center of the pool connected to a SMART-LD program (Panlab S.L., Barcelona, Spain) for subsequent analysis of escape latencies, swimming speed, path length and percent time spent in each quadrant of the pool during probe trials. […]

[7] = system: GluR2/3; experiment: Western blot of GluR2/3 in hippocampus of J20 mice; type: in vivo; details: J20 mice treated for 10 weeks
Experimental: as §1, §2, §3, §4

| Compound | half-life in blood serum [1] | pGSK3β-Ser9 levels [2] | expression levels of PSD95 [3] | level of pAkt [4] | learning ability and memory retention in the FC test [5] | learning ability and memory retention in the MWM [6] | expression levels of GluR2/3 [7] |
| --- | --- | --- | --- | --- | --- | --- | --- |
| CN1CC(=O)N2[C@H](c3ccc4c(c3)OCO4)c3[nH]c4ccccc4c3C[C@@H]2C1=O [tadalafil, (6R-trans)-6-(1,3-benzodioxol-5-yl)-2,3,6,7,12,12a-hexahydro-2-methyl-pyrazino [1',2':1,6] pyrido [3,4-b]indole-1,4-dione] | 18 h | significantly increased; also recorded: being higher the effect of tadalafil | recovered the low expression levels | reduction was reverted; also recorded: higher than that of sildenafil | significant enhancement of memory; also recorded: improved learning ability and memory retention | improved learning ability and memory retention | recovered the low expression levels |
| CCCc1nn(C)c2c(=O)[nH]c(-c3cc(S(=O)(=O)N4CCN(C)CC4)ccc3OCC)nc12 [sildenafil] | 3.4 h | significantly increased | recovered the low expression levels | reduction was reverted | significant enhancement of memory; also recorded: only observed in the FC test (24h after training) | only observed in the FC test | recovered the low expression levels |
